The record followed here is the supplement of paper PMC10307832.

Assay in all cases: relative viability (nuclei count vs DMSO), 5 days (fraction); higher = more cells survive
Compound in the assay “Obatoclax + Foretinib”: COC1=CC(c2cc3ccccc3[nH]2)=N/C1=C\c1[nH]c(C)cc1C [Obatoclax] + COc1cc2c(Oc3ccc(NC(=O)C4(C(=O)Nc5ccc(F)cc5)CC4)cc3F)ccnc2cc1OCCCN1CCOCC1 [Foretinib] (partner 0.25 µM)
An outline of the steps: (§1)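 Values are medians from duplicate plates. Each reflects relative viability, defined as the nuclei count of treated wells over that of vehicle wells. Lung cancer cell lines in 1536-well plates were pin-tool dosed one day after seeding with one drug alone or with a fixed anchor-drug dose plus five library-drug doses (not always all listed) in √10 steps, then fixed, stained and imaged at 4× after 5 days.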

Compound in the assay “Bortezomib + Pemetrexed”: CC(C)C[C@H](NC(=O)[C@H](Cc1ccccc1)NC(=O)c1cnccn1)B(O)O [Bortezomib] + Nc1nc2[nH]cc(CCc3ccc(C(=O)N[C@@H](CCC(=O)O)C(=O)O)cc3)c2c(=O)[nH]1 [Pemetrexed] (partner 0.2 µM)
An outline of the steps: as §1

Compound in the assay “Obatoclax + Olaparib”: COC1=CC(c2cc3ccccc3[nH]2)=N/C1=C\c1[nH]c(C)cc1C [Obatoclax] + O=C(c1cc(Cc2n[nH]c(=O)c3ccccc23)ccc1F)N1CCN(C(=O)C2CC2)CC1 [Olaparib] (partner 8 µM)
An outline of the steps:
as §1

Compound in the assay “Bortezomib + Olaparib”: CC(C)C[C@H](NC(=O)[C@H](Cc1ccccc1)NC(=O)c1cnccn1)B(O)O [Bortezomib] + O=C(c1cc(Cc2n[nH]c(=O)c3ccccc23)ccc1F)N1CCN(C(=O)C2CC2)CC1 [Olaparib] (partner 8 µM)
Put shortly: as §1

Turning to NCI-H650, the relative viability with Obatoclax + Foretinib (first compound 0.01 µM) came to 1.01; with Obatoclax + Foretinib (first compound 0.03162 µM), 0.986; with Obatoclax + Foretinib (first compound 0.3162 µM), 0.717; in the assay with Obatoclax + Foretinib (first compound 1 µM), 0.38; with Bortezomib + Pemetrexed (first compound 0.0002 µM) it was 0.914; in the assay with Bortezomib + Pemetrexed (first compound 0.000632 µM) it was 0.997. For the same cell line, the relative viability in the assay with Bortezomib + Pemetrexed (first compound 0.002 µM) stood at 0.878; with Bortezomib + Pemetrexed (first compound 0.006325 µM), 0.85; in the assay with Bortezomib + Pemetrexed (first compound 0.02 µM), 0.16; with Obatoclax + Olaparib (first compound 0.01 µM), 0.385; with Obatoclax + Olaparib (first compound 0.03162 µM) it was 0.388; with Obatoclax + Olaparib (first compound 0.3162 µM), 0.264. Besides, the relative viability is 0.18 with Obatoclax + Olaparib (first compound 1 µM); 0.372 with Bortezomib + Olaparib (first compound 0.0002 µM); 0.435 in the assay with Bortezomib + Olaparib (first compound 0.000632 µM); 0.398 with Bortezomib + Olaparib (first compound 0.002 µM); 0.165 with Bortezomib + Olaparib (first compound 0.006325 µM); 0.102 in the assay with Bortezomib + Olaparib (first compound 0.02 µM).
